Laboratory results: the CheMixHub ionic liquid set

Test: xn = mol fraction of the nth substance listed

C[N+]1(CCOCCOCC[N+]2(C)CCCC2)CCCC1.N#C[N-]C#N.N#C[N-]C#N + CC[n+]1ccn(C)c1.N#C[N-]C#N + O=S(=O)([N-]S(=O)(=O)C(F)(F)F)C(F)(F)F.[Li+]
electrical conductivity [S/m], 100 kPa
Details | 298 K | 303 K | 313 K | 323 K | 333 K | 343 K
x1 = 0.2606, x2 = 0.6156 | 0.561 | 0.658 | 0.963 | 1.27 | 1.61 | 1.94
x1 = 0.2713, x2 = 0.6408 | 0.911 | 1.01 | 1.37 | 1.71 | 2.12 | 2.54

C[N+]1(CCOCC[N+]2(C)CCCC2)CCCC1.N#C[N-]C#N.N#C[N-]C#N + CC[n+]1ccn(C)c1.N#C[N-]C#N + O=S(=O)([N-]S(=O)(=O)C(F)(F)F)C(F)(F)F.[Li+]
100 kPa, x1 = 0.2938, x2 = 0.621
Details | electrical conductivity [S/m]
298 K | 0.622
303 K | 0.76
313 K | 1.04
323 K | 1.38
333 K | 1.76
343 K | 2.24

COC(=O)OC + CC[n+]1ccn(C)c1.O=S(=O)([N-]S(=O)(=O)C(F)(F)F)C(F)(F)F
101.3 kPa, x2 = 0
Details | viscosity [mPa·s]
288.15 K | 0.668
293.15 K | 0.628
298.15 K | 0.588
303.15 K | 0.553
308.15 K | 0.524

C[N+]1(CCOCCOCC[N+]2(C)CCCC2)CCCC1.N#C[N-]C#N.N#C[N-]C#N + CC[n+]1ccn(C)c1.O=S(=O)([N-]S(=O)(=O)C(F)(F)F)C(F)(F)F + O=S(=O)([N-]S(=O)(=O)C(F)(F)F)C(F)(F)F.[Li+]
100 kPa, x1 = 0.4178, x2 = 0.4469
Details | electrical conductivity [S/m]
298 K | 0.244
303 K | 0.317
313 K | 0.431
323 K | 0.64
333 K | 0.832
343 K | 1.1

CC[n+]1ccn(C)c1.N#C[S-] + CC[n+]1ccn(C)c1.O=S(=O)([O-])C(F)(F)F
Details | viscosity [mPa·s]
293 K, 100 kPa, x1 = 0.5 | 36.4

OCCN(CCO)CCO + CC[n+]1ccn(C)c1.O=S(=O)([O-])C(F)(F)F
100 kPa
Details | electrical conductivity [S/m] | viscosity [mPa·s]
293.15 K, x1 = 0.084 | – | 52.9
298.15 K, x1 = 0.426 | 0.357 | 65.6
298.15 K, x1 = 0.539 | 0.232 | 87.6
298.15 K, x1 = 0.875 | 0.019 | 320
298.15 K, x1 = 0.969 | 0.00321 | –
298.15 K, x2 = 0.003 | 0.000411 | –
298.15 K, x2 = 0.006 | 0.00071 | –
298.15 K, x2 = 0.017 | 0.00188 | –
303.15 K, x1 = 0.084 | – | 36.1
303.15 K, x1 = 0.167 | – | 37
303.15 K, x1 = 0.641 | – | 87.1
303.15 K, x2 = 0.006 | – | 400
313.15 K, x1 = 0.167 | 1.19 | 26
313.15 K, x1 = 0.723 | 0.185 | 65.8
313.15 K, x2 = 0.003 | 0.00117 | –
313.15 K, x2 = 0.006 | 0.00204 | 198.3

CC[C@H](C)[C@H](N)C(=O)O + CC[n+]1ccn(C)c1.O=S(=O)([O-])O + O
viscosity [mPa·s], 100 kPa
Details | x1 = 0.0003801, x2 = 0 | x1 = 0.0007797, x2 = 0 | x1 = 0.00113, x2 = 0 | x1 = 0.001526, x2 = 0 | x1 = 0.001761, x2 = 0 | x1 = 0.002228, x2 = 0 | x1 = 0.002748, x2 = 0
293.15 K | 1.024 | 1.046 | 1.066 | 1.088 | 1.101 | 1.127 | 1.156
298.15 K | 0.902 | 0.913 | 0.923 | 0.934 | 0.94 | 0.953 | 0.968
303.15 K | 0.807 | 0.817 | 0.826 | 0.836 | 0.843 | 0.855 | 0.868
308.15 K | 0.729 | 0.739 | 0.748 | 0.757 | 0.763 | 0.775 | 0.787
313.15 K | 0.661 | 0.671 | 0.679 | 0.688 | 0.693 | 0.704 | 0.716

Cc1ncc(C[n+]2csc(CCO)c2C)c(N)n1.Cl.[Cl-] + CC[n+]1ccn(C)c1.O=S(=O)([O-])O + O
viscosity [mPa·s], 100 kPa
Details | x1 = 0.0002695, x2 = 0 | x1 = 0.0005398, x2 = 0 | x1 = 0.0008099, x2 = 0 | x1 = 0.00108, x2 = 0 | x1 = 0.00135, x2 = 0 | x1 = 0.00162, x2 = 0 | x1 = 0.001889, x2 = 0
293.15 K | 1.01 | 1.02 | 1.03 | 1.03 | 1.04 | 1.05 | 1.06
298.15 K | 0.9 | 0.91 | 0.92 | 0.93 | 0.93 | 0.94 | 0.95
303.15 K | 0.81 | 0.81 | 0.82 | 0.83 | 0.84 | 0.85 | 0.86
308.15 K | 0.73 | 0.73 | 0.74 | 0.75 | 0.76 | 0.76 | 0.77
313.15 K | 0.66 | 0.67 | 0.68 | 0.68 | 0.69 | 0.7 | 0.71
318.15 K | 0.61 | 0.61 | 0.62 | 0.63 | 0.64 | 0.64 | 0.65

O=C1O[C@H]([C@@H](O)CO)C(O)=C1O + CC[n+]1ccn(C)c1.O=S(=O)([O-])O + O
viscosity [mPa·s], 100 kPa
Details | x1 = 0.0002709, x2 = 0 | x1 = 0.0005412, x2 = 0 | x1 = 0.0008101, x2 = 0 | x1 = 0.001079, x2 = 0 | x1 = 0.001351, x2 = 0 | x1 = 0.001618, x2 = 0 | x1 = 0.00189, x2 = 0
293.15 K | 1.01 | 1.01 | 1.02 | 1.02 | 1.03 | 1.03 | 1.04
298.15 K | 0.9 | 0.9 | 0.91 | 0.91 | 0.92 | 0.92 | 0.93
303.15 K | 0.8 | 0.81 | 0.81 | 0.82 | 0.82 | 0.83 | 0.84
308.15 K | 0.72 | 0.73 | 0.73 | 0.74 | 0.74 | 0.75 | 0.76
313.15 K | 0.66 | 0.66 | 0.67 | 0.67 | 0.68 | 0.68 | 0.69
318.15 K | 0.61 | 0.61 | 0.62 | 0.62 | 0.63 | 0.63 | 0.64

CCn1cc[n+](C)c1.[Cl][Al-]([Cl])([Cl])[Cl+][Al-]([Cl])([Cl])[Cl] + CC[n+]1ccn(C)c1.[Cl][Al-]([Cl])([Cl])[Cl]
100 kPa, x1 = 1
Details | viscosity [mPa·s]
313.15 K | 9.79
323.15 K | 7.943
343.15 K | 5.526
353.15 K | 4.721

COC(=O)OC + CC[n+]1ccn(C)c1C.O=S(=O)([N-]S(=O)(=O)C(F)(F)F)C(F)(F)F
101.3 kPa, x2 = 0
Details | viscosity [mPa·s]
288.15 K | 0.668
293.15 K | 0.628
298.15 K | 0.588
303.15 K | 0.553
308.15 K | 0.524
313.15 K | 0.498

CC[n+]1ccn(C)c1.[Cl][Al-]([Cl])([Cl])[Cl] + CCn1cc[n+](C)c1.[Cl][Al-]([Cl])([Cl])[Cl+][Al-]([Cl])([Cl])[Cl]
100 kPa
Details | viscosity [mPa·s]
293.15 K, x2 = 0.2046 | 19.38
303.15 K, x2 = 0 | 15.69
303.15 K, x2 = 0.3035 | 14.44
303.15 K, x2 = 0.5041 | 13.77
303.15 K, x2 = 0.6955 | 13.21
323.15 K, x2 = 0.4003 | 9.033
323.15 K, x2 = 0.5962 | 8.65
323.15 K, x2 = 0.6955 | 8.468
323.15 K, x2 = 0.7963 | 8.286
333.15 K, x2 = 0.1016 | 8.016
333.15 K, x2 = 0.2046 | 7.821
333.15 K, x2 = 0.8901 | 6.726
343.15 K, x2 = 0.5962 | 6.037
343.15 K, x2 = 0.6955 | 5.906
353.15 K, x2 = 0.1016 | 5.806

CCCCCCCCn1cc[n+](C)c1.N#C[S-] + CN1CCCC1=O
viscosity [mPa·s], 101 kPa
Details | x1 = 0.0008419 | x1 = 0.001327 | x1 = 0.002048 | x1 = 0.002709 | x1 = 0.003576 | x1 = 0.004058 | x1 = 0.004657 | x1 = 0.005393
288.15 K | 2.152 | 2.16 | 2.177 | 2.191 | 2.199 | 2.204 | 2.213 | 2.229
298.15 K | 1.809 | 1.817 | 1.827 | 1.834 | 1.846 | 1.857 | 1.865 | 1.872
308.15 K | 1.572 | 1.58 | 1.591 | 1.599 | 1.61 | 1.621 | 1.631 | 1.641
318.15 K | 1.354 | 1.37 | 1.393 | 1.407 | 1.417 | 1.434 | 1.447 | 1.458

CCCCCCCCn1cc[n+](C)c1.[Cl-] + CN1CCCC1=O
100 kPa
Details | viscosity [mPa·s]
293.15 K, x2 = 0.3221 | 787
298.15 K, x2 = 0.3221 | 541
308.15 K, x2 = 0.7195 | 14.86
308.15 K, x2 = 0.9085 | 3.35
318.15 K, x2 = 0.21 | 324
318.15 K, x2 = 0.5321 | 43.3
318.15 K, x2 = 0.8143 | 5.54
323.15 K, x2 = 0.21 | 244
323.15 K, x2 = 0.8143 | 4.96
328.15 K, x2 = 0.21 | 185

CCCCCC[n+]1ccn(C)c1.N#C[S-] + CN1CCCC1=O
viscosity [mPa·s], 101 kPa
Details | x1 = 0.001079 | x1 = 0.001613 | x1 = 0.002068 | x1 = 0.00265 | x1 = 0.003379 | x1 = 0.004077 | x1 = 0.004588 | x1 = 0.005383
288.15 K | 2.143 | 2.148 | 2.155 | 2.162 | 2.168 | 2.173 | 2.182 | 2.186
298.15 K | 1.805 | 1.809 | 1.82 | 1.826 | 1.833 | 1.841 | 1.847 | 1.854
308.15 K | 1.567 | 1.576 | 1.585 | 1.593 | 1.6 | 1.613 | 1.619 | 1.624
318.15 K | 1.337 | 1.35 | 1.357 | 1.37 | 1.38 | 1.389 | 1.397 | 1.402
